Results published in the supplement of paper PMC10307832.

What was measured:
Test in all cases: relative viability (nuclei count vs DMSO), 5 days (fraction); higher = more cells survive
[1] = compound: C1CCC(CC1)N(CCNCCC2=C3C(=C(C=C2)O)NC(=O)CO3)C(=O)CCNCCC4=CC(=C(C=C4)Cl)Cl [AZ505] + NC(=O)Nc1cc(-c2cccc(F)c2)sc1C(=O)N[C@H]1CCCNC1 [AZD7762] (partner 0.2 µM)
Summary of the method: (§1)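 Each reported value is a median over duplicate plates. It expresses relative viability: treated-well nuclei count divided by vehicle-well nuclei count. Lung cancer cell lines in 1536-well plates were dosed by pin tool a day after seeding, alone with one drug or with a fixed anchor-drug dose plus five library-drug doses (not always all listed) in √10 steps, and nuclei were counted after 5 days.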

[2] = compound: C1CCC(CC1)N(CCNCCC2=C3C(=C(C=C2)O)NC(=O)CO3)C(=O)CCNCCC4=CC(=C(C=C4)Cl)Cl [AZ505] + O=C(c1cc(Cc2n[nH]c(=O)c3ccccc23)ccc1F)N1CCN(C(=O)C2CC2)CC1 [Olaparib] (partner 8 µM)
Summary of the method: as §1

[3] = compound: Cn1c(=O)n(-c2ccc(C(C)(C)C#N)cc2)c2c3cc(-c4cnc5ccccc5c4)ccc3ncc21 [Dactolisib] + COc1cc2c(Oc3ccc(NC(=O)C4(C(=O)Nc5ccc(F)cc5)CC4)cc3F)ccnc2cc1OCCCN1CCOCC1 [Foretinib] (partner 0.25 µM)
Summary of the method: as §1

[4] = compound: Cn1c(=O)n(-c2ccc(C(C)(C)C#N)cc2)c2c3cc(-c4cnc5ccccc5c4)ccc3ncc21 [Dactolisib] + C[C@@H](Oc1cc(-c2cnn(C3CCNCC3)c2)cnc1N)c1c(Cl)ccc(F)c1Cl [Crizotinib] (partner 1 µM)
Summary of the method: as §1

Row | Cell Line | relative viability ([1]; first compound 0.08 µM) | relative viability ([1]; first compound 0.253 µM) | relative viability ([1]; first compound 0.8 µM) | relative viability ([1]; first compound 2.53 µM) | relative viability ([1]; first compound 8 µM) | relative viability ([2]; first compound 0.08 µM) | relative viability ([2]; first compound 0.253 µM) | relative viability ([2]; first compound 0.8 µM) | relative viability ([2]; first compound 2.53 µM) | relative viability ([2]; first compound 8 µM) | relative viability ([3]; first compound 0.002 µM) | relative viability ([3]; first compound 0.006325 µM) | relative viability ([3]; first compound 0.02 µM) | relative viability ([3]; first compound 0.06325 µM) | relative viability ([3]; first compound 0.2 µM) | relative viability ([4]; first compound 0.002 µM) | relative viability ([4]; first compound 0.006325 µM) | relative viability ([4]; first compound 0.02 µM) | relative viability ([4]; first compound 0.06325 µM) | relative viability ([4]; first compound 0.2 µM)
1 | NCI-H650 | 0.917 | 0.243 | 0.879 | 1.29 | 0.944 | 0.386 | 0.462 | 0.425 | 0.497 | 0.356 | 0.981 | 1.02 | 1.05 | 0.712 | 0.426 | 0.627 | 0.747 | 0.752 | 0.519 | 0.393
2 | NCI-H727 | 0.661 | 0.418 | 0.582 | 0.512 | 0.76 | 0.653 | 0.675 | 0.667 | 0.724 | 0.662 | 0.906 | 0.882 | 0.762 | 0.4 | 0.425 | 0.915 | 0.671 | 0.666 | 0.354 | 0.374
3 | NCI-H838 | 0.888 | 0.955 | 0.936 | 0.951 | 0.985 | 0.688 | 0.765 | 0.744 | 0.787 | 0.776 | 1.1 | 0.876 | 0.606 | 0.288 | 0.342 | 0.798 | 0.586 | 0.534 | 0.275 | 0.216
4 | NCI-H1355 | 0.677 | 0.474 | 0.757 | 0.689 | 0.858 | 0.719 | 0.796 | 0.729 | 0.734 | 0.711 | 1.05 | 0.902 | 0.664 | 0.509 | 0.223 | 1.18 | 1.09 | 0.99 | 0.488 | 0.326
5 | NCI-H1437 | 1.07 | 1.17 | 1.08 | 1.14 | 1.17 | 0.623 | 0.623 | 0.632 | 0.595 | 0.637 | 1.37 | 1.28 | 1.25 | 1.24 | 1.34 | 1.03 | 0.904 | 0.902 | 0.699 | 0.865
6 | NCI-H1651 | 0.43 | 0.412 | 0.472 | 0.467 | 0.48 | 0.182 | 0.19 | 0.179 | 0.185 | 0.186 | 0.918 | 0.782 | 0.561 | 0.321 | 0.345 | 0.861 | 0.891 | 0.777 | 0.679 | 0.57
7 | NCI-H1666 | 0.791 | 0.853 | 0.844 | 0.852 | 0.946 | 0.736 | 0.812 | 0.721 | 0.731 | 0.764 | 0.968 | 0.993 | 0.987 | 0.791 | 0.762 | 1.22 | 0.884 | 0.876 | 0.637 | 0.436
8 | NCI-H1703 | 0.106 | – | 0.12 | 0.114 | 0.134 | 0.319 | 0.502 | 0.438 | 0.411 | 0.656 | – | 0.389 | 0.381 | 0.281 | 0.325 | 0.581 | 0.49 | 0.373 | 0.35 | 0.18
